Measurements: article PMC12300041, “Tricyclic Isatin Derivatives as Anti-Inflammatory Compounds with High Kinase Binding Affinity” (Molecules, 2025)
Read-outs that look alike come from different tables or passages of the source.

Legend:
[1] = test system: NF-κB/AP-1 transcriptional activity; test: LPS-induced NF-κB/AP-1 reporter (secreted alkaline phosphatase) in THP-1Blue cells; assay type: cell-based, human; conditions: 250 ng/mL LPS, N.A.: not active at the highest tested concentration (50 μM), read-out: AP Production (THP-1 Cells) IC50
Method: Human THP-1Blue monocytic cells stably transfected with a secreted embryonic alkaline phosphatase gene that is under control of a NF-κB/AP-1-inducible promoter were obtained from InvivoGen (San Diego, CA, USA). These cells were cultured in RPMI 1640 medium (Mediatech Inc., Herndon, VA, USA) containing 10% (v/v) fetal bovine serum (FBS), 100 μg/mL streptomycin, 100 U/mL penicillin, 100 μg/mL phleomycin (Zeocin), and 10 μg/mL blasticidin S (all from Sigma-Aldrich, St. Louis, MO, USA).
After incubation of THP-1Blue cells (2 × 10^5 cells/well) with test compounds or control DMSO (1% final concentration) for 30 min, 250 ng/mL of lipopolysaccharide (LPS; from Escherichia coli strain 0111:B4) was added, and the cells were incubated for 24 h. Secreted alkaline phosphatase activity was assessed in the cell supernatants using the QUANTI-Blue mix (InvivoGen; absorbance at 655 nm) and compared with positive controls treated with LPS alone. Compound concentrations that inhibited 50% of the NF-κB reporter activity (IC50) were determined.

[2] = test system: IL-6 production; test: LPS-induced IL-6 production in MonoMac-6 cells (ELISA); assay type: cell-based; conditions: Homo sapiens, MONO-MAC-6, 24 h, N.A.: not active at the highest tested concentration (50 μM)
Method: Human MonoMac-6 monocyte/macrophage cells (Deutsche Sammlung von Mikroorganismen und Zellkulturen GmbH, Braunschweig, Germany) were cultured in RPMI 1640 medium containing 10% (v/v) FBS, 10 μg/mL bovine insulin, 100 μg/mL streptomycin, and 100 U/mL penicillin.
An IL-6 ELISA kit (BD Biosciences, San Jose, CA, USA) was used to assess the effect of selected compounds on IL-6 production. MonoMac-6 cells were plated in 96-well plates at a density of 2 × 10^5 cells/well in culture medium supplemented with 3% (v/v) endotoxin-free FBS. Cells were pretreated with test compound or DMSO for 30 min, followed by addition of 200 ng/mL LPS for 24 h. For selected compounds, the IC50 for cytokine production was calculated by plotting percentage inhibition against the logarithm of inhibitor concentration (at least five points).

[3] = test system: proinflammatory cytokine production; test: Multiplex human cytokine ELISA, LPS-stimulated MonoMac-6 cells; assay type: cell-based; conditions: 10 μM compound, 24 h, versus DMSO-treated control
Excerpt: A multiplex human cytokine ELISA kit from Anogen (Mississauga, ON, Canada) was used to evaluate various cytokines (IL-1α, IL-1β, IL-6, GM-CSF, MCP-1, IFN-γ, and TNF) in the supernatants of MonoMac-6 cells.

[4] = molecular target: T1, DAPK2 (Homo sapiens, UniProt Q9UIK4); test: KINOMEscan; assay type: binding; conditions: for Kd: DAPK2, N.B.: no binding at concentrations up to 30 µM
T1 construct: purchased Eurofins Pharma Discovery (KINOMEscan)
Method: (§1) Kinase profiling was performed by KINOMEscan (Eurofins Pharma Discovery, San Diego, CA, USA), using a panel of 423 protein kinases, as described previously. Compounds were submitted for dissociation constant (Kd) determination toward several target kinases using KINOMEscan. […] Binding reactions were performed at room temperature for 1 h, and the fraction of kinase not bound to the test compound was determined by capture with an immobilized affinity ligand and quantified by quantitative polymerase chain reaction. The primary screening at fixed concentrations of the compound was performed in duplicate. For dissociation constant Kd determination, a 12-point half-log dilution series (a maximum concentration of 33 μM) was used.

[5] = molecular target: T2, DAPK3 (Homo sapiens, UniProt O43293); test: KINOMEscan; assay type: binding; conditions: for Kd: DAPK3, N.B.: no binding at concentrations up to 30 µM
T2 construct: purchased Eurofins Pharma Discovery (KINOMEscan)
Method: as §1

[6] = molecular target: T3, DYRK1B (Homo sapiens, UniProt Q9Y463); test: KINOMEscan; assay type: binding
T3 construct: purchased Eurofins Pharma Discovery (KINOMEscan)
Method: as §1

[7] = molecular target: T4, HASPIN (Homo sapiens, UniProt Q8TF76); test: KINOMEscan; assay type: binding; conditions: for Kd: Haspin, N.B.: no binding at concentrations up to 30 µM
T4 construct: purchased Eurofins Pharma Discovery (KINOMEscan)
T4 sequence (Q8TF76 1-798): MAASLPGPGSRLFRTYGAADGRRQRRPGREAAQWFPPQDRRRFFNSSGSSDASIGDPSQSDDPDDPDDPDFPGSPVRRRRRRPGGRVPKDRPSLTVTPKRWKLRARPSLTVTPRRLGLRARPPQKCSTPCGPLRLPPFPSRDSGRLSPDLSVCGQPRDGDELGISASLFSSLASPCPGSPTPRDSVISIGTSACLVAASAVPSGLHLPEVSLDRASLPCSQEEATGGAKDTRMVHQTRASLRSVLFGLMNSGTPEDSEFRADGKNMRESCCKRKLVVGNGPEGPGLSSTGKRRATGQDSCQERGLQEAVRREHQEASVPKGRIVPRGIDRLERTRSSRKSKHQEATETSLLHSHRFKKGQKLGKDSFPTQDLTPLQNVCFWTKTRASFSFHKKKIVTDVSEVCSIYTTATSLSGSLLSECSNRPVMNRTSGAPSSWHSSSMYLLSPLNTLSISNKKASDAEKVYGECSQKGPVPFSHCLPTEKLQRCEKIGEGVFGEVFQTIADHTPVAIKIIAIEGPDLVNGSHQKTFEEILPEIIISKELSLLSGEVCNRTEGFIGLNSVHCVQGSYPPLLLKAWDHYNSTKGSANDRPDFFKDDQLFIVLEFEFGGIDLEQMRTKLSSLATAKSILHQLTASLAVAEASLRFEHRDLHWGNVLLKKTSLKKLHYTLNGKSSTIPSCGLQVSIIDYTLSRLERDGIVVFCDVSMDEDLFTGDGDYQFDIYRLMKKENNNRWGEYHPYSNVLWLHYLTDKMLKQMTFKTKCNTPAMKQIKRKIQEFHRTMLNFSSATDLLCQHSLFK
Method: as §1

[8] = molecular target: T5, HIPK2 (Homo sapiens, UniProt Q9H2X6); test: KINOMEscan; assay type: binding; conditions: for Kd: HIPK2, N.B.: no binding at concentrations up to 30 µM
T5 construct: purchased Eurofins Pharma Discovery (KINOMEscan)
Method: as §1

[9] = molecular target: T6, HIPK3 (Homo sapiens, UniProt Q9H422); test: KINOMEscan; assay type: binding; conditions: for Kd: HIPK3, N.B.: no binding at concentrations up to 30 µM
T6 construct: purchased Eurofins Pharma Discovery (KINOMEscan)
Method: as §1

[10] = molecular target: T7, IRAK1 (Homo sapiens, UniProt P51617); test: KINOMEscan; assay type: binding
T7 construct: purchased Eurofins Pharma Discovery (KINOMEscan)
Method: as §1

[11] = molecular target: T8, PIM1 (Homo sapiens, UniProt P11309); test: KINOMEscan; assay type: binding; conditions: for Kd: PIM1, N.B.: no binding at concentrations up to 30 µM
T8 construct: purchased Eurofins Pharma Discovery (KINOMEscan)
Method: as §1

[12] = DYRK1B, N.B.: no binding at concentrations up to 30 µM
[13] = IRAK1, N.B.: no binding at concentrations up to 30 µM

T5 sequence (Q9H2X6 whole entry): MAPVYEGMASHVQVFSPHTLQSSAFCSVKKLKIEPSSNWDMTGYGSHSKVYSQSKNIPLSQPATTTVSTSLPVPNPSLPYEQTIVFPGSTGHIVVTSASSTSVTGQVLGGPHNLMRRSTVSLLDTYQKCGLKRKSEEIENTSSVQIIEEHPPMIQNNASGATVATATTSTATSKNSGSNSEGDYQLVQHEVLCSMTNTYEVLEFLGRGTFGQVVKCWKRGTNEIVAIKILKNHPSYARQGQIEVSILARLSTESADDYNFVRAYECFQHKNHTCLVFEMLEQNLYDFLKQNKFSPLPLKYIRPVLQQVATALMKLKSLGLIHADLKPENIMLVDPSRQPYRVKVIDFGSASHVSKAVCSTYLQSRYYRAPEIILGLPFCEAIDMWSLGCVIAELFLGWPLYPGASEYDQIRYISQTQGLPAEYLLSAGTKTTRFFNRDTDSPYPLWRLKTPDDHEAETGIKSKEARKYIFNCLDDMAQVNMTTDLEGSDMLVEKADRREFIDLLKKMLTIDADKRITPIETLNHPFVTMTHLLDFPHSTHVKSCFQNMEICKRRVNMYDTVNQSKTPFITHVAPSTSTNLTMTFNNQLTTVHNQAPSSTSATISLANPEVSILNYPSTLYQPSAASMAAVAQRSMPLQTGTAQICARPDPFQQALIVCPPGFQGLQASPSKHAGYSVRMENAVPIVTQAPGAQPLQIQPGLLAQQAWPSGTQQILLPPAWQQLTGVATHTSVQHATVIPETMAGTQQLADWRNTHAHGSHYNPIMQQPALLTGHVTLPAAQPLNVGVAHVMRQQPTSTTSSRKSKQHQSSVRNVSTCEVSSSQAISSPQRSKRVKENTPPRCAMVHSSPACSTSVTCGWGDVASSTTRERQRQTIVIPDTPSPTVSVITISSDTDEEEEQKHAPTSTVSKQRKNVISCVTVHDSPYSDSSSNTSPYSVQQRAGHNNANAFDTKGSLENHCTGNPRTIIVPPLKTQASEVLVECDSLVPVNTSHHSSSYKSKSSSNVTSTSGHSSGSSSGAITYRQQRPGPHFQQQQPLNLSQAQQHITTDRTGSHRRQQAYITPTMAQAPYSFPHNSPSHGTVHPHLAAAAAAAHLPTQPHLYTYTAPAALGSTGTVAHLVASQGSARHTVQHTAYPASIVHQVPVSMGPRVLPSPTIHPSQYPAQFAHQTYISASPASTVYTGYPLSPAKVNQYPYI
T3 sequence (Q9Y463 whole entry): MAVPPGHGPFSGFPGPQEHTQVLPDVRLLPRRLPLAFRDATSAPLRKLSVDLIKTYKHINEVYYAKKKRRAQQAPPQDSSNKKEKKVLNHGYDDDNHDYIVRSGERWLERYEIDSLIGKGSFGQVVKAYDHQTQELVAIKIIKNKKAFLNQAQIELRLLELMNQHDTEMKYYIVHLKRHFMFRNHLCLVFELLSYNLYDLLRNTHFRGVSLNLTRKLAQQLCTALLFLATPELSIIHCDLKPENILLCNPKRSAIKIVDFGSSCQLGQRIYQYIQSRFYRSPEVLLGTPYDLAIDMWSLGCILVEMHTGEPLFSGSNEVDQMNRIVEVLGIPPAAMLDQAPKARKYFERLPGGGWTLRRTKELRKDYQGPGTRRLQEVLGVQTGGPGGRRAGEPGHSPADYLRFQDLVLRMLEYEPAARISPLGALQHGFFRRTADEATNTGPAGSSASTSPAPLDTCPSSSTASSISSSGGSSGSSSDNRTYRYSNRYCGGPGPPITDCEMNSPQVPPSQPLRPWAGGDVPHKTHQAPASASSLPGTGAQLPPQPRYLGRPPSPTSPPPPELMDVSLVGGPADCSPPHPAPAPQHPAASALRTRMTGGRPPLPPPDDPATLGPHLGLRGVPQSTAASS
T8 sequence (P11309 whole entry): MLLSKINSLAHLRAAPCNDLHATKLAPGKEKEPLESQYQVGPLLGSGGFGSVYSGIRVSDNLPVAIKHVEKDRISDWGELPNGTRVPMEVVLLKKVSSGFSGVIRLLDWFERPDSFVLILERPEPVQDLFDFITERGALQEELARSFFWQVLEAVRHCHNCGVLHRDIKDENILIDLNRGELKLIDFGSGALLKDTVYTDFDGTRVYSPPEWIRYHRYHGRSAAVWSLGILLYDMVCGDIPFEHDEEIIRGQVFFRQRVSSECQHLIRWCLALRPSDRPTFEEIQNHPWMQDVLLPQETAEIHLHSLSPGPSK
T7 sequence (P51617 whole entry): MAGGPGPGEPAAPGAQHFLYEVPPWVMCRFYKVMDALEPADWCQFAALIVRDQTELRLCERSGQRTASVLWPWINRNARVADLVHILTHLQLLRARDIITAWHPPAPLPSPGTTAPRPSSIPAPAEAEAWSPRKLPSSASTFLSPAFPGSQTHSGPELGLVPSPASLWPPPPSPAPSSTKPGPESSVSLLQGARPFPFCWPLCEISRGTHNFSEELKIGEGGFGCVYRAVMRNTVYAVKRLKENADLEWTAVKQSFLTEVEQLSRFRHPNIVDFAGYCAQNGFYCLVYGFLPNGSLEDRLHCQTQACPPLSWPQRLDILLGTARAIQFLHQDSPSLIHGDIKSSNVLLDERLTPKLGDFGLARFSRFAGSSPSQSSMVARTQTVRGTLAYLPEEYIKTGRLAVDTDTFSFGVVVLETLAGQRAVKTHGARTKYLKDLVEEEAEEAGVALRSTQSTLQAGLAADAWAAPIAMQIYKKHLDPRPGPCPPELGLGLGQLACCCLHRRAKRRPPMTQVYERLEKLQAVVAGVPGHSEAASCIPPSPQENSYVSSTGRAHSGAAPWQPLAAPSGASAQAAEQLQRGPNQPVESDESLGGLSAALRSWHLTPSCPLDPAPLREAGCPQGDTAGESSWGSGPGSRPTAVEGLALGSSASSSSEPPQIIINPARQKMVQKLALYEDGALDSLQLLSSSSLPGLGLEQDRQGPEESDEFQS
T1 sequence (Q9UIK4 whole entry): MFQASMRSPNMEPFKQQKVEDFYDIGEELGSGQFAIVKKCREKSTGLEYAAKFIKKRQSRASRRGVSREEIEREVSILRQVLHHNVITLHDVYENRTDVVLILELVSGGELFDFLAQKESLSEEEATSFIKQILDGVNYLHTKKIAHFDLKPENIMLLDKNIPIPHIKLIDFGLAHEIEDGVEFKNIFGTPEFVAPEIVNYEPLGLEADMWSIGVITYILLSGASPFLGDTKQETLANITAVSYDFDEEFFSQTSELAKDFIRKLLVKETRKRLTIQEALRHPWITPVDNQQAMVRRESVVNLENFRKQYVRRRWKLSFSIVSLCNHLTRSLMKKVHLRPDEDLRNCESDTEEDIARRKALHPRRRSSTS
T6 sequence (Q9H422 whole entry): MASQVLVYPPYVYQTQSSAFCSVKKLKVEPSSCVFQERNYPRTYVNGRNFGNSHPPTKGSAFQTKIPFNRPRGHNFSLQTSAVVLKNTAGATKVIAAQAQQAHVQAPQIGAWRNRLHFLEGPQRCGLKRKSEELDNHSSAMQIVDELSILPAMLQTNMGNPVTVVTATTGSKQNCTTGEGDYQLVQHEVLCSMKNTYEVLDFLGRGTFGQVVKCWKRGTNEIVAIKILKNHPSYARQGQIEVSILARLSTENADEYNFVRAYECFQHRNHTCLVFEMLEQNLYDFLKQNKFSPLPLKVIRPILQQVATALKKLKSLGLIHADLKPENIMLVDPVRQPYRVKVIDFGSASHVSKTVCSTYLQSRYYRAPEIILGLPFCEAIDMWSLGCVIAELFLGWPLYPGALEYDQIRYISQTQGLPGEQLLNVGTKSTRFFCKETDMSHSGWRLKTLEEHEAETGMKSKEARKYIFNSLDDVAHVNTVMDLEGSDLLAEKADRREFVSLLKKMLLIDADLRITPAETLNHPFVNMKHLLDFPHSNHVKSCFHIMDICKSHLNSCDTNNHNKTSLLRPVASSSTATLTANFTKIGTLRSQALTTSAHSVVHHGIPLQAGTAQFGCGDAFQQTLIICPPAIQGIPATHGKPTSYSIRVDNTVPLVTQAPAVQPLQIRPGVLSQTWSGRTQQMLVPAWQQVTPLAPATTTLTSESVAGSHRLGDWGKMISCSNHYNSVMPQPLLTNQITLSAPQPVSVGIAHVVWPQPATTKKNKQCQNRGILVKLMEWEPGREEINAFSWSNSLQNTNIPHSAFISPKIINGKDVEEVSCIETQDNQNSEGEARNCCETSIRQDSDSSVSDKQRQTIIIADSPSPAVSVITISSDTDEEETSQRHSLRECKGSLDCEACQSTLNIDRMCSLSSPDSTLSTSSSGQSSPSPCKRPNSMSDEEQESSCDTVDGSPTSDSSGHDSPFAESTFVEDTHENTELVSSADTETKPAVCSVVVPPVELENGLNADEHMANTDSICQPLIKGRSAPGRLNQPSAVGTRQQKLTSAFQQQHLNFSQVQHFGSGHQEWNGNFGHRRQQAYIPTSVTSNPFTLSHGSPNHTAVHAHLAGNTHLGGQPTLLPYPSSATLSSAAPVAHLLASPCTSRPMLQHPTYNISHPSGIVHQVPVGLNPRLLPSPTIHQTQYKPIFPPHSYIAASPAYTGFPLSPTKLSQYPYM
T2 sequence (O43293 whole entry): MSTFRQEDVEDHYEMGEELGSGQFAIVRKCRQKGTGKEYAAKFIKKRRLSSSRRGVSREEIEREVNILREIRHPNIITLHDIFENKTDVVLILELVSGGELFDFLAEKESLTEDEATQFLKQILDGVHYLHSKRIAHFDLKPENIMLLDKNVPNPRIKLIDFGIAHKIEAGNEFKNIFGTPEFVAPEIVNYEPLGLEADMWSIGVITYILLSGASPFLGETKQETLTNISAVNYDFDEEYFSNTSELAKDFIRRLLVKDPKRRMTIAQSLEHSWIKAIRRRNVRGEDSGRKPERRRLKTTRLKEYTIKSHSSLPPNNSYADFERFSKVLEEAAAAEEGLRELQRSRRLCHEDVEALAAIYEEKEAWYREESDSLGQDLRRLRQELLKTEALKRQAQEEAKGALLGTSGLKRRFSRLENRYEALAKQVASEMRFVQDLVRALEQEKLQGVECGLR

SMILES | IC50 ([1]; 24 h) [nM] | IC50 ([1]; Homo sapiens, THP-1, 24 h) [nM] | IC50 [2] [nM] | inhibition of secretion of IL-1α, IL-1β, IL-6, TNF and MCP-1 [3] | Kd [4] [nM] | Kd [5] [nM] | Kd [7] [nM] | Kd [8] [nM] | Kd [9] [nM] | Kd [11] [nM] | also measured
O=C1Nc2c(ccc3c2CCCC3)C1=NO [Compound 5a, 3-(Hydroxyimino)-1,3,6,7,8,9-hexahydro-2H-benzo[g]indol-2-one] | 6000 ± 1300 | < 6100 | 48300 ± 4400 | less effective | 7700 ± 1100 | 20500 ± 3500 | 610 ± 80 | 730 ± 640 | 1300 ± 300 | 1800 ± 100 | Kd (µM) [6, 12]: N.B.; Kd (µM) [10, 13]: N.B.
O=C1Nc2c(cc([N+](=O)[O-])c3c2CCCC3)C1=NO [Compound 5d, 3-(Hydroxyimino)-5-nitro-1,3,6,7,8,9-hexahydro-2H-benzo[g]indol-2-one] | 5500 ± 1400 | < 6100 | 12600 ± 3200 | inhibited | 200 ± 42 | 590 ± 28 | 165 ± 21 | 295 ± 92 | 135 ± 70 | 122 ± 54 | inhibition at 10 µM ([4]; 10 μM): 98.9%; inhibition at 10 µM ([5]; 10 μM): 98.5%; inhibition at 10 µM ([6]; 10 μM): 96.4%; Kd [6, 12]: 470 ± 20 nM; inhibition at 10 µM ([7]; 10 μM): 99.5%; inhibition at 10 µM ([8]; 10 μM): 99.7%; inhibition at 10 µM ([9]; 10 μM): 100%; inhibition at 10 µM ([10]; 10 μM): 99.2%; Kd [10, 13]: 670 ± 113 nM; inhibition at 10 µM ([11]; 10 μM): 98.2%
